From the NIST ThermoML archive (doi:10.1016/j.jct.2014.12.002)

What was measured:
[1] = Molar enthalpy of transition or fusion; conditions: Crystal; DSC
[2] = Crystal
[3] = molar heat capacity at constant pressure; conditions: 100 kPa, Small sample (50 mg) DSC

N#Cc1ccccc1-c1ccc(CBr)cc1 [4'-(bromomethyl)-2-cyanobiphenyl]
Conditions | Molar enthalpy of transition or fusion [kcal/mol]
[1] | 7.05

Conditions | molar volume [m3/mol]
[2], 293.15 K, 101.33 kPa, Pycnometric method | 0.000223

Conditions | Normal melting temperature [°C]
[2], DTA | 126.06

[3]
Conditions | molar heat capacity at constant pressure [J/K/mol]
293.15 K, Crystal | 253.23
297.15 K, Crystal | 256.2
301.15 K, Crystal | 259.07
305.15 K, Crystal | 261.5
309.15 K, Crystal | 265.03
313.15 K, Crystal | 268.1
317.15 K, Crystal | 271.41
321.15 K, Crystal | 274.74
325.15 K, Crystal | 277.96
329.15 K, Crystal | 281.51
333.15 K, Crystal | 284.37
337.15 K, Crystal | 287.74
341.15 K, Crystal | 291.32
345.15 K, Crystal | 294.58
349.15 K, Crystal | 298.15
353.15 K, Crystal | 300.62
357.15 K, Crystal | 303.82
361.15 K, Crystal | 306.86
365.15 K, Crystal | 309.09
369.15 K, Crystal | 314.38
373.15 K, Crystal | 317.58
433.15 K, Liquid | 408.2
437.15 K, Liquid | 410.68
441.15 K, Liquid | 413.2
445.15 K, Liquid | 415.66
449.15 K, Liquid | 417.96
453.15 K, Liquid | 420.63
457.15 K, Liquid | 423.5
461.15 K, Liquid | 425.47
465.15 K, Liquid | 427.72
469.15 K, Liquid | 429.91
473.15 K, Liquid | 432.48
477.15 K, Liquid | 434.9
481.15 K, Liquid | 437.62
485.15 K, Liquid | 440.31
489.15 K, Liquid | 441.88
493.15 K, Liquid | 444.14
